Assay results published in the supplement of paper PMC10290057.
Structures can show the parent of a compound that is named as a salt.

System: HCT116
Assay: efficacy (fitted maximal change in viability relative to DMSO control); higher = less cytotoxic (negative = loss of viability)
Conditions: 48 h
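Also: Luminescence-based viability readout, five doses per compound, normalized against on-plate DMSO and empty-well controls, followed by dose-response curve fitting for every drug.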

Row | Structure (SMILES) | efficacy [%]
1 | CC(=O)N[C@H]1[C@H](O[C@@H]2c3ccc(c(Cl)c3)Oc3cc4cc(c3O[C@@H]3O[C@H](CO)[C@@H](O)[C@H](O)[C@H]3NC(=O)CCCCCCCC(C)C)Oc3ccc(cc3Cl)C[C@H]3NC(=O)[C@H](N)c5ccc(O)c(c5)Oc5cc(O)cc(c5)[C@H](NC3=O)C(=O)N[C@H]4C(=O)N[C@H]3C(=O)N[C@@H]2C(=O)N[C@@H](C(=O)O)c2cc(O)cc(O[C@H]4O[C@H](CO)[C@@H](O)[C@H](O)[C@@H]4O)c2-c2cc3ccc2O)O[C@H](CO)[C@@H](O)[C@@H]1O [Teicoplanin] | -14.5
2 | CCC[C@H](NC(=O)[C@@H]1[C@H]2CCC[C@H]2CN1C(=O)[C@@H](NC(=O)[C@@H](NC(=O)c1cnccn1)C1CCCCC1)C(C)(C)C)C(=O)C(=O)NC1CC1 [Telaprevir (VX-950)] | -39.3
3 | CC[C@H]1OC(=O)[C@H](C)C(=O)[C@H](C)[C@@H](O[C@H]2O[C@H](C)C[C@H](N(C)C)[C@H]2O)[C@](C)(OC)C[C@@H](C)C(=O)[C@H](C)[C@H]2N(CCCCn3cnc(-c4cccnc4)c3)C(=O)O[C@]12C [Telithromycin] | -11.9
4 | CCCc1nc2c(C)cc(-c3nc4ccccc4n3C)cc2n1Cc1ccc(-c2ccccc2C(=O)O)cc1 [Telmisartan] | -20.9
5 | CCOC(=O)[C@@H](N)Cc1ccc(-c2cc(O[C@H](c3ccc(Cl)cc3-n3ccc(C)n3)C(F)(F)F)nc(N)n2)cc1 [Telotristat Etiprate (LX 1606 Hippurate)] | -95.9
6 | CCOC(=O)[C@H](CCc1ccccc1)N[C@H]1CS[C@H](c2cccs2)CN(CC(=O)O)C1=O.Cl [Temocapril hydrochloride] | 10.5
7 | CO[C@H]1C[C@@H]2CC[C@@H](C)[C@@](O)(O2)C(=O)C(=O)N2CCCC[C@H]2C(=O)O[C@H]([C@H](C)C[C@@H]2CC[C@@H](OC(=O)C(C)(CO)CO)[C@H](OC)C2)CC(=O)[C@H](C)/C=C(\C)[C@@H](O)[C@@H](OC)C(=O)[C@H](C)C[C@H](C)/C=C/C=C/C=C/1C [Temsirolimus] | -13.9
8 | CC[C@H](NC1=C2[NH]C=NC2=NC=N1)/C3=C(/C(=O)C4=CC=CC=C4O3)C5=CC=CC(=C5)F [Tenalisib] | -39.1
9 | COc1ccc2[nH]c([S+]([O-])Cc3ncc(C)c(OC)c3C)nc2n1 (centres undefined) [Tenatoprazole] | -10.8
10 | CN1\C(=C(\O)C2=C(C=CS2)[S+]1([O-])=O)C(=O)NC3=CC=CC=N3 [Tenoxicam] | -10.7
11 | C/C(O)=C(\C#N)C(=O)Nc1ccc(C(F)(F)F)cc1 [Teriflunomide] | -52.2
12 | CCN(CC)CCOc1ccc(Cc2ccccc2)cc1 [Tesmilifene hydrochloride] | -27
13 | C[C@]12CC[C@H]3[C@@H](CCC/4=C/C(=O)CC[C@]34C)[C@@H]1CC[C@@H]2OC(=O)CCC5CCCC5 [Testosterone cypionate] | -12
14 | COc1cc2c(cc1OC)C1CC(=O)C(CC(C)C)CN1CC2 (centres undefined) [Tetrabenazine] | -45.5
15 | CN(C)[C@H]\1[C@@H]2C[C@H]3C(=C(O)\[C@]2(O)C(=O)\C(=C1O)C(N)=O)/C(=O)C4=C(O)C=CC=C4[C@@]3(C)O [Tetracycline hydrochloride] | 8.73
16 | O=C1NC(O)CCN1[C@@H]1O[C@H](CO)[C@@H](O)[C@H]1O (some centres undefined) [Tetrahydrouridine] | -11.8
17 | O=C1CCC(N2C(=O)c3ccccc3C2=O)C(=O)N1 (centres undefined) [Thalidomide] | -16.7
18 | Cn1c(=O)c2[nH]cnc2n(C)c1=O [Theophyllamine] | -11.6
19 | c1ccc2[nH]c(-c3cscn3)nc2c1 [Thiabendazole] | -7.02
20 | S=P(N1CC1)(N1CC1)N1CC1 [ThioTEPA] | -13.1
21 | Cc1ccsc1C(=CCCN1CCC[C@@H](C(=O)O)C1)c1sccc1C [Tiagabine hydrochloride] | -8.94
22 | Clc1ccccc1CN1CCc2sccc2C1 [Ticlopidine hydrochloride] | -21.1

Row | Structure (SMILES) | efficacy [%]
23 | O=c1sn(-c2cccc3ccccc23)c(=O)n1Cc1ccccc1 [Tideglusib] | -7.08
24 | CN(C)[C@H]\1[C@@H]2C[C@@H]\3CC4=C(C(=C(NC(=O)CNC(C)(C)C)C=C4N(C)C)O)C(=O)C3=C(O)/[C@@]2(O)C(=O)\C(=C1O)C(N)=O [Tigecycline] | -18.8
25 | O=c1oc2cc(O)ccc2s1 [Tioxolone] | -6.66
26 | O=C(O)C(=O)c1cn(Cc2ccccc2)c2ccc(-c3ccc(OC(F)(F)F)cc3)cc12 [Tiplasinin] | -22.4
27 | NC[C@H]1O[C@H](O[C@H]2[C@H](O)[C@@H](O[C@H]3O[C@H](CO)[C@@H](O)[C@H](N)[C@H]3O)[C@H](N)C[C@@H]2N)[C@H](N)C[C@@H]1O [Tobramycin] | -8.81
28 | Cc1ccc(C(=O)c2cc(O)c(O)c([N+](=O)[O-])c2)cc1 [Tolcapone] | -83.1
29 | CC1=CC(=CC=C1)OC/2=C/NC(=O)/N=C2 [Tolimidone] | 6.41
30 | Cc1cccc(N(C)C(=S)Oc2ccc3ccccc3c2)c1 [Tolnaftate] | -28.8
31 | Cc1ccc(O)c(C(CCN(C(C)C)C(C)C)c2ccccc2)c1.Cl (centres undefined) [Tolterodine tartrate] | -19.8
32 | Cc1ccccc1C(=O)Nc1ccc(C(=O)N2CCCC(O)c3cc(Cl)ccc32)c(C)c1 (centres undefined) [Tolvaptan] | -64.3
33 | COc1ccc(/C=C/C(=O)Nc2ccccc2C(=O)O)cc1OC [Tranilast] | -8.29
34 | N[C@@H]1C[C@H]1c1ccccc1 [Tranylcypromine] | -9.58
35 | CC1=C(/C=C/C(C)=C/C=C/C(C)=C/C(=O)O)C(C)(C)CCC1 [Tretinoin] | -22.5
36 | NC(=S)N/N=C/c1ncccc1N [Triapine] | -21.4
37 | N[S+](=O)([O-])c1cc2c(cc1Cl)NC(C(Cl)Cl)N[S+]2(=O)[O-] (centres undefined) [Trichlormethiazide] | 6.79
38 | CC1=CC2=C(O1)C(=C3OC(=O)\C=C(C)/C3=C2)C [Trioxsalen] | -19.8
39 | O=C(CCCCCCC(=O)Nc1ccc([C@H]2O[C@@H](CSc3nc(-c4ccccc4)c(-c4ccccc4)o3)C[C@@H](c3ccc(CO)cc3)O2)cc1)NO [Tubacin] | -23.7
40 | CC(C)OC(=O)/C1=C/N(CC(C)(C)C2=C1[NH]C3=CC=CC=C23)C(=O)C4=CC=C(F)C(=C4)F [Turofexorate isopropyl] | -17.9
41 | N#C/C(=C\c1ccc(O)c(O)c1)C(=O)NCc1ccccc1 [Tyrphostin B42] | -71.9
42 | COc1cc2c(NC3CCN(C)CC3)nc(N3CCCN(C)CC3)nc2cc1OCCCN(C)C [UNC-0224] | -57.9
43 | O=C(c1ccc(C(=O)N2CCC(N3CCCC3)CC2)c(Nc2ccccc2)c1)N1CCC(N2CCCC2)CC1 [UNC-1215] | -10.4
44 | CCCC\1=C(/CNC(=O)C2=CC(=CC3=C2C=N[N]3C(C)C)C4=CC=C(N=C4)N5CCN(CC5)C(C)C)C(=O)NC(=C1)\C [UNC-1999] | -25.5

Row | Structure (SMILES) | efficacy [%]
45 | CCN(CC)CCCC[C@H](NC(=O)[C@H](CC(C)C)NC(=O)[C@H](C)NC(=O)[C@H](Cc1ccccc1)NC(=O)c1ccc(C(C)(C)C)cc1)C(=O)N[C@@H](CO)C(=O)OC [UNC-3866] | -18.9
46 | OC[C@H]1O[C@H]([C@H](O)[C@@H]1O)N2\C=C/C(=O)NC2=O [Uridine] | -9.88
47 | C[C@@H]1CC[C@@]2(CC[C@]3(C)\C(=C/C[C@@H]4[C@@]5(C)CC[C@H](O)C(C)(C)[C@@H]5CC[C@@]34C)[C@@H]2[C@H]1C)C(O)=O [Ursolic acid] | 6.32
48 | CC[C@H](NC(=O)[C@H](C[S+](=O)([O-])CC1CC1)N[C@@H](c1ccc(F)cc1)C(F)(F)F)C(=O)C(=O)NC1CC1 [VBY-825] | -25.3
49 | C[S+](=O)([O-])c1ccc(-c2cnc(N)c(C(=O)Nc3ccccc3)n2)cc1 [VE-821] | -26.1
50 | CC(C)(C)C#Cc1cc(N(C(=O)[C@H]2CC[C@H](C)CC2)[C@H]2CC[C@@H](O)CC2)c(C(=O)O)s1 [VX-222] | -59.3
51 | FC1=CC=C(SC/2=N/N3\C=N/C(=O)/C(=C3/C=C2)C4=C(Cl)C=CC=C4Cl)C(=C1)F [VX-745] | -34.7
52 | CCO[C@@H]1OC(=O)C[C@@H]1NC(=O)[C@@H]1CCCN1C(=O)[C@@H](NC(=O)c1ccc(N)c(Cl)c1)C(C)(C)C [VX-765] | 23.5
53 | O=C(O)CNC(=O)c1ncc(-c2cccc(Cl)c2)cc1O [Vadadustat] | -15.6
54 | CC(C)[C@H](N)C(=O)OCCOC[N]1C=NC2=C1\N=C(N)/NC2=O [Valaciclovir] | 8.42
55 | Cc1onc(-c2ccccc2)c1-c1ccc([S+](N)(=O)[O-])cc1 [Valdecoxib] | -36.8
56 | CCCC(CCC)C(=O)[O-] [Valproic acid sodium salt] | 14
57 | CN[C@H](CC(C)C)C(=O)N[C@H]1C(=O)N[C@@H](CC(N)=O)C(=O)N[C@H]2C(=O)N[C@H]3C(=O)N[C@H](C(=O)N[C@H](C(=O)O)c4cc(O)cc(O)c4-c4cc3ccc4O)[C@H](O)c3ccc(c(Cl)c3)Oc3cc2cc(c3O[C@@H]2O[C@H](CO)[C@@H](O)[C@H](O)[C@H]2O[C@H]2C[C@](C)(N)[C@H](O)[C@H](C)O2)Oc2ccc(cc2Cl)[C@H]1O [Vancomycin hydrochloride] | -27
58 | O=C(O)CC/C=C\CC[C@@H]1[C@@H](N2CCCCC2)[C@@H](O)C[C@@H]1OCc1ccc(-c2ccccc2)cc1 [Vapiprost hydrochloride] | -23.2
59 | CCCC1=NC(=C2[N]1NC(=N\C2=O)/C3=CC(=CC=C3OCC)[S+]([O-])(=O)N4CCN(CC)CC4)C [Vardenafil] | -19.1
60 | CCc1c(C(=O)C(N)=O)c2c(OCC(=O)O)cccc2n1Cc1ccccc1 [Varespladib] | -27.8
61 | Clc1ccc(Nc2nnc(Cc3ccncc3)c3ccccc23)cc1 [Vatalanib] | -27.3
62 | CC(=O)O[C@H]1C[C@@H]2CC[C@@H]3[C@H](CC[C@@]4(C)[C@H]3C[C@H]([N+]3(C)CCCCC3)[C@@H]4OC(C)=O)[C@@]2(C)C[C@@H]1N1CCCCC1.[Br-] [Vecuronium bromide] | -10.9
63 | O=C(O)[C@@H](c1ccc(OCc2ccc3ccccc3n2)cc1)C1CCCC1 [Veliflapon] | -10.1
64 | C[C@]1(c2nc3c(C(N)=O)cccc3[nH]2)CCCN1 [Veliparib] | -31.3
